Measurements reported in patent publication US20120329675A1, “Testing of Biofilm for Anti-microbial Agent Susceptibility” (priority 2009, published 2012).
Read-outs that look alike come from different tables or passages of the source.

Assays:
[1] = system: Pseudomonas aeruginosa (12 isolates from Cystic Fibrosis patients), planktonic bacteria; assay: Planktonic susceptibility to antibiotics and antibiotic combinations (challenge plate), 24 h exposure; type: cell-based
[2] = system: Biofilms of Pseudomonas aeruginosa (12 isolates from Cystic Fibrosis patients); assay: Biofilm susceptibility to antibiotics and antibiotic combinations (peg lid device), 24 h exposure; type: cell-based; details: count apparently resistant isolates of 12
[3] = system: P. aeruginosa ATCC 27853 biofilms; assay: Peg lid biofilm susceptibility testing, qualitative (MBEC) and quantitative (MBIC, MBCB) end points; type: cell-based, Pseudomonas aeruginosa
Procedure: Qualitative end points. According to CLSI standards % the MIC is defined as the lowest concentration of an antimicrobial agent that prevents visible growth in the challenge medium after a set period of incubation. By contrast, the MBEC is defined as the lowest concentration of antimicrobial agent that prevents visible growth from occurring in the recovery medium used to collect biofilm cells^17. The MBEC can be determined using the protocol presented here, and is measured after the recovery medium has been incubated for a suitable period of time, the length of which depends on the growth rate of the microorganism. Quantitative end points. […] This definition can be extended to both planktonic and biofilm cells and these end points will be denoted as the MBCP and MBCB, respectively. […] The technique presented here allows the MBCB or MLCB to be calculated. Another measure of biofilm susceptibility that has been proposed is the minimum biofilm inhibitory concentration (MBIC)^38,39. Here, the MBIC is defined as the lowest concentration of an antimicrobial at which there is no time-dependent increase in biofilm MVCC when an early exposure time is compared with a later exposure time. The MBIC thus corresponds to the intersecting point of two concentration-dependent killing curves, and therefore, it is possible to distinguish between biofilm resistance and tolerance on the basis of VCC (FIG. 8). (iii) Read the OD of the microtiter plate wells at 650 nm using the microtiter plate reader and visually inspect the wells for growth. […] (viii) Score the spot plates for growth by colony counting using the same approach described in Step 8. Determine the mean VCCs and SD for the broth culture using equations (2) and (3). Calculate biofilm mean log-killing and SD using equation (5). […] The biofilms were then exposed to gentamicin for either 2 or 20 hours; qualitative and quantitative determinations of biofilm cell survival were then performed. For ease of understanding, we focus on a single antibiotic.

[4] = 12 isolates from Cystic Fibrosis patients, 24 hours exposure, count apparently resistant isolates of 12

Compound | Pseudomonas resistance to individual antibiotics and antibiotic combinations, Planktonic [1, 4] | Pseudomonas resistance to individual antibiotics and antibiotic combinations, Biofilm [2] | other results
C[C@H]1[C@H](NC(=O)/C(=N\OC(C)(C)C(=O)O)c2csc(N)n2)C(=O)N1S(=O)(=O)O [AZTR, Aztreonam] |  |  | Pseudomonas resistance to individual antibiotics and antibiotic combinations, Planktonic [1]: 0
CC(C)(O/N=C(\C(=O)N[C@@H]1C(=O)N2C(C(=O)[O-])=C(C[n+]3ccccc3)CS[C@H]12)c1csc(N)n1)C(=O)O [CFTZ, Ceftazidime] | 3 | 12 | 
C[C@@H](O)[C@H]1C(=O)N2C(C(=O)O)=C(SCCN=CN)C[C@H]12 [IMP] | 12 | 12 | 
O=C(O)c1cn(C2CC2)c2cc(N3CCNCC3)c(F)cc2c1=O [CIPRO, Ciprofloxacin] |  |  | Pseudomonas resistance to individual antibiotics and antibiotic combinations, Planktonic [1]: 4
NCC[C@H](O)C(=O)N[C@@H]1C[C@H](N)[C@@H](O[C@H]2O[C@H](CN)[C@@H](O)[C@H](O)[C@H]2O)[C@H](O)[C@H]1O[C@H]1O[C@H](CO)[C@@H](O)[C@H](N)[C@H]1O [AK, Amikacin] | 8 | 11 | 
gentamicin | 8 | 12 | MBCB ([3]; 2 h exposure): > 512 µg/mL; MBCB ([3]; 20 h exposure): 512 µg/mL; MBEC ([3]; exposed for 2 or 20 hours, biofilms grown in LB broth): > 512 µg/mL; MBIC ([3]; from VCC, 2 h compared with 20 h exposure): 128 µg/mL
NC[C@H]1O[C@H](O[C@H]2[C@H](O)[C@@H](O[C@H]3O[C@H](CO)[C@@H](O)[C@H](N)[C@H]3O)[C@H](N)C[C@@H]2N)[C@H](N)C[C@@H]1O [TB, Tobramycin] | 3 | 12 | 
